Laboratory results from patent US20230085307A1, “PYRIDAZINONE COMPOUND AND HERBICIDE” (NISSAN CHEMICAL CORPORATION, priority 2019, published 2023).

What was measured:
rice flat sedge = assay: Test Example 3: herbicidal effect by foliage application, Wagner pot (Table 18, symbol E); type: in vivo, rice flat sedge (Cyperus iria); details: 320 g/ha
Summary of the method: (§1)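 Plants were sown in alluvial soil held under 0.1–0.5 cm standing water and grown 14 days in a greenhouse at 25–30 °C. An emulsifiable formulation, water-diluted to the set dose, was then sprayed onto the foliage, and effects were scored three weeks later using previously defined criteria.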

blackgrass [1] = assay: Test Example 4: herbicidal effect by soil treatment (Table 19, symbol J); type: in vivo, blackgrass (Alopecurus myosuroides); details: AAH 320 g/ha
Summary of the method: (§2)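 In this soil treatment, the formulated compound reached the seeds only through the soil: seeds were buried about 1.5 cm deep in sterilized diluvial soil, then the diluted emulsion was sprayed over the surface. After three weeks at 25° C. to 30° C. in a greenhouse, effects were graded on criteria from an earlier test.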

windgrass [2] = assay: Test Example 5: herbicidal effect by foliage application, plastic box (Table 20, symbol L); type: in vivo, windgrass (Apera spica-venti); details: foliage application, AAH 320 g/ha, three weeks after application
Summary of the method: (§3)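 Plants were sown into sterilized diluvial soil under about 1.5 cm cover and kept in a greenhouse at 25° C. to 30° C. Fourteen days on, foliage received an even spray of the diluted emulsion. Herbicidal or crop effect was judged three weeks afterwards.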

green foxtail [3] = assay: Test Example 5: herbicidal effect by foliage application, plastic box (Table 20, symbol G); type: in vivo, green foxtail (Setaria viridis); details: foliage application, AAH 320 g/ha, three weeks after application
Summary of the method: as §3

blackgrass [4] = assay: Test Example 5: herbicidal effect by foliage application, plastic box (Table 20, symbol J); type: in vivo, blackgrass (Alopecurus myosuroides); details: foliage application, AAH 320 g/ha, three weeks after application
Summary of the method: as §3

southern crabgrass [5] = assay: Test Example 4: herbicidal effect by soil treatment (Table 19, symbol F); type: in vivo, southern crabgrass (Digitaria ciliaris); details: AAH 320 g/ha
Summary of the method: as §2

chickweed [6] = assay: Test Example 4: herbicidal effect by soil treatment (Table 19, symbol P); type: in vivo, common chickweed (Stellaria media); details: AAH 320 g/ha
Summary of the method: as §2

persian speedwell [7] = assay: Test Example 4: herbicidal effect by soil treatment (Table 19, symbol R); type: in vivo, Persian speedwell (Veronica persica); details: AAH 320 g/ha
Summary of the method: as §2

lambsquarters [8] = assay: Test Example 5: herbicidal effect by foliage application, plastic box (Table 20, symbol O); type: in vivo, lambsquarters (Chenopodium album); details: foliage application, AAH 320 g/ha, three weeks after application
Summary of the method: as §3

barnyard grass [9] = assay: Test Example 4: herbicidal effect by soil treatment (Table 19, symbol H); type: in vivo, barnyard grass (Echinochloa crus-galli); details: AAH 320 g/ha
Summary of the method: as §2

velvetleaf [10] = assay: Test Example 4: herbicidal effect by soil treatment (Table 19, symbol M); type: in vivo, velvetleaf (Abutilon theophrasti); details: AAH 320 g/ha
Summary of the method: as §2

wild oat [11] = assay: Test Example 5: herbicidal effect by foliage application, plastic box (Table 20, symbol I); type: in vivo, wild oat (Avena fatua); details: foliage application, AAH 320 g/ha, three weeks after application
Summary of the method: as §3

Italian ryegrass [12] = assay: Test Example 5: herbicidal effect by foliage application, plastic box (Table 20, symbol K); type: in vivo, Italian ryegrass (Lolium multiflorum); details: foliage application, AAH 320 g/ha, three weeks after application
Summary of the method: as §3

green foxtail [13] = assay: Test Example 4: herbicidal effect by soil treatment (Table 19, symbol G); type: in vivo, green foxtail (Setaria viridis); details: AAH 320 g/ha
Summary of the method: as §2

redroot pigweed [14] = assay: Test Example 5: herbicidal effect by foliage application, plastic box (Table 20, symbol N); type: in vivo, redroot pigweed (Amaranthus retroflexus); details: foliage application, AAH 320 g/ha, three weeks after application
Summary of the method: as §3

barnyard grass [15] = assay: Test Example 5: herbicidal effect by foliage application, plastic box (Table 20, symbol H); type: in vivo, barnyard grass (Echinochloa crus-galli); details: foliage application, AAH 320 g/ha, three weeks after application
Summary of the method: as §3

southern crabgrass [16] = assay: Test Example 5: herbicidal effect by foliage application, plastic box (Table 20, symbol F); type: in vivo, southern crabgrass (Digitaria ciliaris); details: foliage application, AAH 320 g/ha, three weeks after application
Summary of the method: as §3

Italian ryegrass [17] = assay: Test Example 4: herbicidal effect by soil treatment (Table 19, symbol K); type: in vivo, Italian ryegrass (Lolium multiflorum); details: AAH 320 g/ha
Summary of the method: as §2

lambsquarters [18] = assay: Test Example 4: herbicidal effect by soil treatment (Table 19, symbol O); type: in vivo, lambsquarters (Chenopodium album); details: AAH 320 g/ha
Summary of the method: as §2

chickweed [19] = assay: Test Example 5: herbicidal effect by foliage application, plastic box (Table 20, symbol P); type: in vivo, common chickweed (Stellaria media); details: foliage application, AAH 320 g/ha, three weeks after application
Summary of the method: as §3

wild oat [20] = assay: Test Example 4: herbicidal effect by soil treatment (Table 19, symbol I); type: in vivo, wild oat (Avena fatua); details: AAH 320 g/ha
Summary of the method: as §2

barnyard grass [21] = assay: Test Example 3: herbicidal effect by foliage application, Wagner pot (Table 18, symbol H); type: in vivo, barnyard grass (Echinochloa crus-galli); details: 320 g/ha
Summary of the method: as §1

persian speedwell [22] = assay: Test Example 5: herbicidal effect by foliage application, plastic box (Table 20, symbol R); type: in vivo, Persian speedwell (Veronica persica); details: foliage application, AAH 320 g/ha, three weeks after application
Summary of the method: as §3

redroot pigweed [23] = assay: Test Example 4: herbicidal effect by soil treatment (Table 19, symbol N); type: in vivo, redroot pigweed (Amaranthus retroflexus); details: AAH 320 g/ha
Summary of the method: as §2

velvetleaf [24] = assay: Test Example 5: herbicidal effect by foliage application, plastic box (Table 20, symbol M); type: in vivo, velvetleaf (Abutilon theophrasti); details: foliage application, AAH 320 g/ha, three weeks after application
Summary of the method: as §3

Chinese sprangletop = assay: Test Example 3: herbicidal effect by foliage application, Wagner pot (Table 18, symbol D); type: in vivo, chinese sprangletop (Leptochloa chinensis); details: 320 g/ha
Summary of the method: as §1

windgrass [25] = assay: Test Example 4: herbicidal effect by soil treatment (Table 19, symbol L); type: in vivo, windgrass (Apera spica-venti); details: AAH 320 g/ha
Summary of the method: as §2

COc1ccc(-c2sc3ccccc3c2-c2c(O)c(OC)nn(C)c2=O)c(OC)c1 [1-180]
herbicidal effect on E (rice flat sedge), rating 0-5 (rice flat sedge): 4 (Herbicidal rate of 70% or more and less than 90%)
J: blackgrass, herbicidal effect rating (blackgrass [1]): 0 (Herbicidal rate of 5% or less (almost no effect))
L: windgrass, herbicidal effect (windgrass [2]): 3 (Herbicidal rate of 40% or more and less than 70%)
G: green foxtail, herbicidal effect (green foxtail [3]): 5 (Herbicidal rate of 90% or more (almost completely withered))
J: blackgrass, herbicidal effect (blackgrass [4]): 3 (Herbicidal rate of 40% or more and less than 70%)
F: southern crabgrass, herbicidal effect rating (southern crabgrass [5]): 0 (Herbicidal rate of 5% or less (almost no effect))
P: chickweed, herbicidal effect rating (chickweed [6]): 4 (Herbicidal rate of 70% or more and less than 90%)
R: persian speedwell, herbicidal effect rating (persian speedwell [7]): 4 (Herbicidal rate of 70% or more and less than 90%)
O: lambsquarters, herbicidal effect (lambsquarters [8]): 2 (Herbicidal rate of 20% or more and less than 40%)
H: barnyard grass, herbicidal effect rating (barnyard grass [9]): 0 (Herbicidal rate of 5% or less (almost no effect))
M: velvetleaf, herbicidal effect rating (velvetleaf [10]): 0 (Herbicidal rate of 5% or less (almost no effect))
I: wild oat, herbicidal effect (wild oat [11]): 3 (Herbicidal rate of 40% or more and less than 70%)
K: Italian ryegrass, herbicidal effect (Italian ryegrass [12]): 3 (Herbicidal rate of 40% or more and less than 70%)
G: green foxtail, herbicidal effect rating (green foxtail [13]): 0 (Herbicidal rate of 5% or less (almost no effect))
N: redroot pigweed, herbicidal effect (redroot pigweed [14]): 3 (Herbicidal rate of 40% or more and less than 70%)
H: barnyard grass, herbicidal effect (barnyard grass [15]): 1 (Herbicidal rate of 5% or more and less than 20%)
F: southern crabgrass, herbicidal effect (southern crabgrass [16]): 3 (Herbicidal rate of 40% or more and less than 70%)
K: Italian ryegrass, herbicidal effect rating (Italian ryegrass [17]): 0 (Herbicidal rate of 5% or less (almost no effect))
O: lambsquarters, herbicidal effect rating (lambsquarters [18]): 0 (Herbicidal rate of 5% or less (almost no effect))
P: chickweed, herbicidal effect (chickweed [19]): 5 (Herbicidal rate of 90% or more (almost completely withered))
I: wild oat, herbicidal effect rating (wild oat [20]): 2 (Herbicidal rate of 20% or more and less than 40%)
herbicidal effect on H (barnyard grass), rating 0-5 (barnyard grass [21]): 1 (Herbicidal rate of 5% or more and less than 20%)
R: persian speedwell, herbicidal effect (persian speedwell [22]): 4 (Herbicidal rate of 70% or more and less than 90%)
N: redroot pigweed, herbicidal effect rating (redroot pigweed [23]): 0 (Herbicidal rate of 5% or less (almost no effect))
M: velvetleaf, herbicidal effect (velvetleaf [24]): 0 (Herbicidal rate of 5% or less (almost no effect))
herbicidal effect on D (Chinese sprangletop), rating 0-5 (Chinese sprangletop): 0 (Herbicidal rate of 5% or less (almost no effect))
L: windgrass, herbicidal effect rating (windgrass [25]): 0 (Herbicidal rate of 5% or less (almost no effect))
